Among the data in the METLIN SMRT retention time set (Domingo-Almenara et al. 2019) are RP-LC retention time values, retold here.

This series can be described thus: gradient 5% acetonitrile 3 min, to 50% in 2 min, to 85% in 15 min, held 3 min, 100 µL/min. Particulars: column: Zorbax Extend-C18 2.1 x 50 mm; eluents: water / acetonitrile, 0.1% formic acid. In a few lines: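 Over 3 months, pure standards in mixtures of ~100 molecules were run by HPLC coupled to a quadrupole time-of-flight mass spectrometer in positive and negative ionization mode. The column was a Zorbax Extend-C18 (2.1 × 50 mm, 1.8 μm) at 100 μL/min, eluted with water and acetonitrile each holding 0.1% formic acid, with 40 μL dead and 900 μL dwell volumes. Retention time was determined from adduct peaks chosen by software and checked manually.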
`COc1ccc(CNC(=O)Cn2c(=O)c3cc(-c4ccco4)nn3c3ncccc32)cc1` displayed an RP-LC retention time of 754 s.

In turn, `Cc1nc2cc(-c3noc(C(C)NC(=O)c4ccccc4)n3)ccc2o1` (centres undefined) gave an RP-LC retention time of 811 s.

With `Cc1c(F)cccc1NC(=O)NC1CCN(c2ccc(F)cc2)C1=O` (centres undefined), the RP-LC retention time turned out to be 866 s.

`CC(C)C(=O)Nc1nc(-c2ccc(F)cc2)cs1` came in with an RP-LC retention time of 916 s.

`CCCN1C(=O)c2cc(S(=O)(=O)NCc3ccco3)ccc2Oc2cccnc21` had an RP-LC retention time of 952 s.

For the compound `O=C(Nc1ccccn1)C1CCCN(S(=O)(=O)c2cc(-c3noc(C4CCC4)n3)cs2)C1` (centres undefined), the RP-LC retention time was determined as 978 s.

In turn, `O=C(Cn1cccc1-c1nnc(C2CC2)o1)NCc1ccc2c(c1)OCO2` came in with an RP-LC retention time of 749 s.

In the case of `O=C(C1COc2ccccc2O1)N1CCc2cc(-c3csc(C4CC4)n3)ccc21` (centres undefined), the RP-LC retention time came to 1190 s.

With `c1ccc2c3c([nH]c2c1)CNCC3`, the RP-LC retention time is 703 s.

Consider `Cc1nc2ccccn2c(=O)c1Cc1nnc(SCc2cc(=O)c3cccc(C)c3[nH]2)n1C`, for which the RP-LC retention time came out at 599 s.

Turning to `CCOc1ccc(C2Cn3nnc(-c4nc(-c5ccccc5OC)no4)c3CO2)cc1` (centres undefined), the RP-LC retention time was 1090 s.

For the compound `CN(C)C(=O)OCC1COc2ccccc2O1` (centres undefined), the RP-LC retention time stood at 883 s.

Take `CC(=O)Nc1c(C)noc1/C=C\c1ccc(C)c(S(=O)(=O)N2CCN(c3ccccn3)CC2)c1`: the RP-LC retention time was 666 s.

In turn, `O=C(NCCN1CCN(c2ccccc2F)CC1)C1CCCN(c2nc3cccnc3s2)C1` (centres undefined) gave an RP-LC retention time of 632 s.

`CC(=O)Nc1nsc(N2CCC(C(=O)NCc3ccc(F)cc3)CC2)n1` gave an RP-LC retention time of 649 s.

For the compound `Cc1ccc2nc(-c3ccccc3O)c(Nc3ccc4c(c3)OCCO4)n2c1`, the RP-LC retention time amounted to 684 s.

`CC1CCN(C(=O)CN(C)S(=O)(=O)c2ccc3c(c2)CCCC(=O)N3)CC1` displayed an RP-LC retention time of 713 s.

`Cc1ccc(N2C(=O)c3cccnc3C2CC(=O)N2CCN(c3ccccn3)CC2)cc1` (centres undefined) displayed an RP-LC retention time of 579 s.

In turn, `CCc1nnc2nc(N3CCN(C(=O)COc4ccc(Cl)cc4)CC3)cc(C)n12` gave an RP-LC retention time of 648 s.

In turn, `CCc1ccc(NC(=O)c2cn(CC)c3ncccc23)cc1` displayed an RP-LC retention time of 962 s.

`CCOc1ccc(NC(=O)c2cc(S(=O)(=O)N3CCC(C)CC3)cn2C)cc1` came in with an RP-LC retention time of 1070 s.

Consider `COCC(=O)N1CCCCCNC(=O)[C@@H]2CCCC[C@@H]21`, for which the RP-LC retention time was determined as 631 s.

Compound `CCc1nc(OCC(=O)NCc2cccc(C)c2)c2c(C)c(C)oc2n1` had an RP-LC retention time of 947 s.

With `Cc1cc(C)cc(S(=O)(=O)N2CCC(C(=O)NCc3csc(-c4ccccc4)n3)CC2)c1`, the RP-LC retention time was determined as 990 s.

Turning to `Cc1sc(NC(=O)c2ccc(Cl)cc2)nc1-c1ccc2c(c1)NC(=O)CO2`, the RP-LC retention time was determined as 954 s.

With `CC(C)N1C(=O)C(C)(C(=O)Nc2cccc(F)c2)Oc2cccnc21` (centres undefined), the RP-LC retention time amounted to 1020 s.

Consider `O=S(=O)(c1ccc2c(c1)CCC2)N1CCc2nc(-c3ccc(F)cc3)ncc2C1`, for which the RP-LC retention time was 1220 s.

On to `COc1ccc(NC(=O)CSc2nnc3c4cc(-c5ccc(Cl)cc5)nn4ccn23)c(OC)c1`, for which the RP-LC retention time came out at 951 s.

With `CC(C)(C)C(=O)Nc1cnc(-c2ccc(Cl)cc2)nc1`, the RP-LC retention time stood at 1060 s.

For `Cc1nc(C(=O)Nc2cccc(F)c2)c(C)n1C1CCN(S(C)(=O)=O)CC1`, the RP-LC retention time was determined as 706 s.

The compound `COc1ccc(OC)c(CNC(=O)C2CCCN(c3nnc4cccc(C)n34)C2)c1` (centres undefined) displayed an RP-LC retention time of 672 s.

`CC(C)n1c(=O)oc2cc(-c3noc(-c4cccc(Cl)c4)n3)ccc21` came in with an RP-LC retention time of 1180 s.

As for `Cc1cccc(N2CCN(C(=O)c3ccnc(N4CCCC4)n3)CC2)c1`, the RP-LC retention time was determined as 894 s.

In turn, `CC1CCCCN1CCCNC(=O)CN1C(=O)CCn2nc(-c3cn(C)c4ccccc34)cc21` (centres undefined) gave an RP-LC retention time of 564 s.

On to `Cc1noc2nc(CCC(=O)NCCCN3CCc4ccccc4C3)nc(N3CCCCCC3)c12`, for which the RP-LC retention time worked out at 695 s.

The compound `O=C1COc2c1ccc(O)c2O` showed an RP-LC retention time of 623 s.

`O=C(NC1CCN(c2cc(N3CCOCC3)cnn2)C1)C1CCCC1` (centres undefined): the RP-LC retention time turned out to be 548 s.

In turn, `Cc1cc(C)n(Cc2nc(-c3ccc(NC(=O)Cc4cccc(F)c4)cc3)oc2C)n1` returned an RP-LC retention time of 930 s.

`Cn1nc(-c2nc(C3CC3)no2)c2c1CCN(C(=O)c1cccnc1)C2` had an RP-LC retention time of 642 s.

In turn, `O=C(Cn1ccc2c(SCc3ccc(F)cc3)nccc21)NCc1ccc(N2CCOCC2)cc1` displayed an RP-LC retention time of 706 s.

Compound `CCN1C(=O)COc2ccc(-c3noc(C4CC(=O)N(c5cccc(Cl)c5)C4)n3)cc21` (centres undefined) had an RP-LC retention time of 1010 s.

The compound `COc1ccc(Cl)cc1C(=O)N1CCN=C1SCc1cccnc1` displayed an RP-LC retention time of 578 s.

`COc1ccc(-c2nc(Cn3cnc4ccccc4c3=O)no2)cc1OC` had an RP-LC retention time of 765 s.

`CNC(=O)c1cc2n(n1)CCCN(Cc1ccc(C)cc1)C2=O` registered an RP-LC retention time of 699 s.

On to `CCOC(=O)c1noc2ncnc(NCc3ccccc3Cl)c12`, for which the RP-LC retention time is 965 s.

As for `CC(C)CC(=O)NC1CCN(c2ccc(F)cc2)C1=O` (centres undefined), the RP-LC retention time came out at 742 s.

On to `O=C(C1CCN(c2nc3ccc(-c4cccc(F)c4)nc3s2)CC1)N1CCCCC1`, for which the RP-LC retention time was 1070 s.

`CC1CCN(S(=O)(=O)c2ccc(-c3nnc(C(=O)NCCN4CCCC4)o3)cc2)CC1` showed an RP-LC retention time of 686 s.

Turning to `COc1cccc(CNC(=O)c2cn3ccc(C)cc3n2)c1OC`, the RP-LC retention time was found to be 632 s.

For `Cc1ccccc1NC(=O)c1cccn1Cc1noc(C2CC2)n1`, the RP-LC retention time is 880 s.

Turning to `CCN1CCN(C(=O)C2CCN(c3nc4cccnc4s3)CC2)CC1`, the RP-LC retention time was found to be 570 s.

In the case of `COc1ccc(-c2nc3cnccn3c2Nc2ccc3c(c2)OCO3)cc1OC`, the RP-LC retention time is 672 s.

Compound `CCC(=O)N1CCCc2ccc(NC(=O)c3cccs3)cc21` showed an RP-LC retention time of 827 s.

The compound `CCOC(=O)c1cnc(N2CCN(c3ccccc3OC)CC2)c2ccccc12` yielded an RP-LC retention time of 1150 s.

The compound `COc1cccc(-c2cc3n(n2)CCCN(Cc2cccnc2)C3)c1` returned an RP-LC retention time of 526 s.

The compound `CCN1CCN(c2c(S(=O)(=O)c3ccccc3)cnc3cc(OC)c(OC)cc23)CC1` had an RP-LC retention time of 623 s.

`COc1ccc2c(c1)C1(CCN(C(=O)c3ccc(OC)c(OC)c3)C1)C(=O)N2` (centres undefined) registered an RP-LC retention time of 674 s.

`CCOC(=O)c1nc(N(C)c2ccccc2C)c2ccccc2n1` came in with an RP-LC retention time of 916 s.

In turn, `COc1ccc(-c2csc(N3CCN(c4ccc([N+](=O)[O-])c(-n5nc(C)cc5C)c4)CC3)n2)cc1` yielded an RP-LC retention time of 1150 s.

In turn, `Cc1ccc(Cl)cc1N1CCN(c2ccc3cc(S(=O)(=O)N4CCCCC4)ccc3n2)CC1` returned an RP-LC retention time of 1000 s.

With `CCCC(=O)Nc1cc2c(cc1S(=O)(=O)c1ccccc1)n(CC)c(=O)n2CC`, the RP-LC retention time stood at 883 s.

Turning to `O=S(=O)(c1ccc(-c2noc(-c3cccc(F)c3)n2)cc1)N1CCCCC1`, the RP-LC retention time worked out at 1280 s.

Compound `O=C(Nc1ccc2c(c1)OCCO2)N1CCN(Cc2ccccc2)c2ncccc21` registered an RP-LC retention time of 731 s.

`Cc1ccc(CNC(=O)C2CCCN(c3nc4c(s3)c(C)nn4-c3ccc(Cl)cc3)C2)cc1` (centres undefined): the RP-LC retention time came out at 1290 s.

`Cc1ccc(OCC(=O)NCC2CCN(Cc3ccncc3)CC2)cc1` returned an RP-LC retention time of 543 s.

In the case of `COc1ccc(CN2CCC3(CCC3O)CC2)cc1OC` (centres undefined), the RP-LC retention time was found to be 562 s.

Consider `CN1CCN(CCNC(=O)C2CCc3sc(C(=O)N4CCCCCC4)cc3C2)CC1` (centres undefined), for which the RP-LC retention time amounted to 601 s.

`CCOc1ccccc1NC(=O)Cn1cccc(S(=O)(=O)N2CCC(C)CC2)c1=O` yielded an RP-LC retention time of 857 s.

As for `CNC(=O)C1CCN(c2nc3ncn(CC(=O)Nc4c(C)cc(C)cc4C)c(=O)c3s2)CC1`, the RP-LC retention time came out at 646 s.

In the case of `Cc1ccc(C(=O)N2CCC3(C2)C(=O)N(C)c2ccccc23)cc1F` (centres undefined), the RP-LC retention time was 815 s.

In the case of `COc1ccc(NC(=O)C2CCN(S(=O)(=O)c3cc(C(=O)N4CCCC4)n(C)c3)CC2)cc1`, the RP-LC retention time was determined as 729 s.

Compound `CNC(=O)CN1C(=O)C2CCCCN2c2ccc(S(=O)(=O)N(C)C)cc21` (centres undefined) displayed an RP-LC retention time of 690 s.

The compound `O=C(CN1CCC2(CC1)N=C(c1ccc(Br)cc1)C(=O)N2)Nc1ccccc1` displayed an RP-LC retention time of 825 s.

In the case of `CN(C)c1cccc(C(=O)N2CCN(S(=O)(=O)C3CC3)CC2)c1`, the RP-LC retention time was 630 s.

Compound `Cc1c(C(=O)N2CCC(C)CC2)c(S(=O)(=O)N2CCN(c3ccccn3)CC2)c(C)n1C` registered an RP-LC retention time of 664 s.

In the case of `CCCCn1c(=O)c2ccccc2n(Cc2nc(-c3ccccc3Br)no2)c1=O`, the RP-LC retention time worked out at 1170 s.

As for `CC(C)c1csc(-c2csc(S(=O)(=O)NCc3ccc(Br)cc3)c2)n1`, the RP-LC retention time turned out to be 1190 s.

For the compound `COc1ccc(OC)c(CN2C[C@@H]3C(=O)N(C)C(=O)[C@@H]3C2)c1`, the RP-LC retention time is 574 s.

On to `CC1CCN(C(=O)CCCN2C(=O)CCn3nc(-c4cn(C)c5ccccc45)cc32)CC1`, for which the RP-LC retention time came to 880 s.
